Test results: PMC2974656, “Selective killing of human immunodeficiency virus infected cells by non-nucleoside reverse transcriptase inhibitor-induced activation of HIV protease” (Retrovirology, 2010)

Columns and labels:
RT heterodimer (p66/p51) = biological target: T1, RT heterodimer (p66/p51) (Human immunodeficiency virus type 1 group M subtype B, UniProt P04585); test: cell-based; assay type: cell-based, HIV-1
T1 construct: the bait protein (p66) was fused to the C-terminus of a chimeric receptor; expressed in transfected cells; host or cells: mammalian cells
Source text: RT heterodimer formation was monitored using a mammalian two hybrid system described previously. In brief, the bait protein (p66) was fused to the C-terminus of a chimeric receptor consisting of the extracellular part of the erythropoietin receptor and the intracellular part of the leptin receptor incapable of STAT activation. The prey protein (p51) was coupled to a part of the cytoplasmic tail of the gp130 chain carrying several STAT3 recruitment domains. Interaction of bait and prey protein leads to functional complementation of STAT3 activity, which results in Epo dependent induction of a STAT3-responsive luciferase reporter gene. Enhancement of this interaction by the addition of compounds can thus be measured by an increase of luciferase expression.

[1] = test system: MT4-LTR-EGFP parental cells; settings: 1 μM, 6 days, trypan blue
Source text: In MT4-LTR-EGFP-IIIB cells, HIV expression could additionally be detected through long terminal repeat (LTR) driven expression of the gfp marker gene. As a control we used uninfected MT-4 cells or MT4-CMV-EGFP cells, constitutively expressing EGFP from a CMV promoter, respectively.
Cell lysates were harvested and analyzed by immunoblot using antiserum raised against HIV-1 CA. Positions of Gag and Gag-Pol processing products are marked at the right, molecular mass standards are indicated to the left (in kDa). […] Live cells were counted after trypan blue staining. Data represent mean values and standard deviations from three parallel cultures.

[2] = test system: Gag processing in MT-4-IIIB cells; test: Immunoblot of Gag processing in chronically infected MT-4 cells; assay type: cell-based, HIV-1; settings: 1 μM, day 2 post addition
HIV-1AGFP infected PBMC = test: Killing of HIV-1 infected PBMC, proportion of GFP expressing cells by flow cytometry; assay type: cell-based, human; settings: 1 μM NNRTI, added day 2 post infection with AMD-3100, 5 days
Description: PBMC isolated from healthy blood donors were activated and infected with a replication competent HIV-1 derivative which carries a gfp gene in the nef locus [49]. The co-receptor antagonist AMD-3100 was added at day 2 post infection to prevent further viral spread.

[3] = test system: HXB2D-EGFP infected CD4 positive cells isolated from PBMC; test: Killing of HIV-1 infected CD4 positive primary T-cells, flow cytometry; assay type: cell-based, human; settings: 1 μM NNRTI + 1 μM AZT, 3 days
Description: To validate our results obtained for the persistently infected cell line in a more relevant cell system we performed additional infection experiments using human peripheral blood mononuclear cells (PBMC). […]. PBMC isolated from healthy blood donors were activated and infected with a replication competent HIV-1 derivative which carries a gfp gene in the nef locus. The co-receptor antagonist AMD-3100 was added at day 2 post infection to prevent further viral spread. This was done to distinguish the proposed killing of infected cells from the inhibitory effect of NNRTIs and PIs on virus replication. […]. […] Similar results were obtained upon infection of CD4-positive primary T-cells with an EGFP-expressing virus (Figure 4B).
Figure 4 NNRTI induced selective killing of HIV-1 infected primary human cells. (A) PBMC prepared from buffy coats of healthy blood donors were infected with HIV-1AGFP. At day 2 post infection, 100 ng/ml AMD-3100 was added to all samples to prevent further infection. […] After further incubation for 5 days, cells were harvested and analyzed for the proportion of infected GFP expressing cells by flow cytometry. […] P-values were calculated using a two-tailed unpaired t-test (GraphPad Prism). Values were normalized to the respective solvent control. (B) CD4 positive cells isolated from PBMC were infected with HXB2D-EGFP. […] After further incubation for 3 days, cells were harvested and analyzed for the proportion of infected cells by flow cytometry. […] Asterisks: non-infected controls.
Peripheral blood mononuclear cells (PBMC) were purified from buffy coats of HIV-negative blood donors, grown in supplemented RPMI 1640 and stimulated by the addition of 10 ng/ml IL-2 (Biomol) and 2 μg/ml PHA (Sigma). PBMC pooled from two donors each were used for infection. […] For infection of PBMC, the HIV-1 derivatives HIV-1-AGFP [49] carrying the gfp gene fused to the codon for amino acid 16 of Nef in pNL4-3, or HXB2D-EGFP [60], which carries an egfp gene in the place of the viral nef open reading frame, were used as indicated. […]

293T cells = test: Microscopically detectable impairment of cell growth of transfected 293T cells; assay type: cell-based; settings: high NNRTI concentrations (5 μM and above)
Description: At 44 h post transfection, cell lysates were analyzed for β-Gal activity.

NS(=O)(=O)c1ccc(NC(=O)CSc2nnc(Br)n2-c2ccc(C3CC3)c3ccccc23)c(Cl)c1 [VRX-480773]
EC50 (RT heterodimer (p66/p51); concentration enhancing luciferase signal by 50% over control, read-out: Enhancement of RT-Dimerization EC50): 4 nM | Promotion of RT dimerization, in words (RT heterodimer (p66/p51); summary of Table 1): low nM range | Number of uninfected control cells [1]: remained constant | NNRTI mediated enhancement of Gag processing in virus producing cells [2]: decreased ratio of Gag to intermediate and fully mature processing products | Infected primary cells (PBMC) as compared with the control (HIV-1AGFP infected PBMC): significant reduction | Cytotoxicity on infected CD4-positive primary T-cells [3]: PR dependent cytotoxicity | Impairment of cell growth with decrease in β-Gal activity indicative of cytotoxic effects (293T cells): most pronounced
